Patent US20080317728A1, “Lowering Uric Acid to Prevent or Accelerate Recovery of Acute Renal Failure” (UNIVERSITY OF FLORIDA RESEARCH FOUNDATION, INC., priority 2004, published 2008)
Values joined by “and” are separate entries in the source; they are usually repeats but may differ in a detail not shown here. Identical values can stand only once.

Columns and labels:
[1] = tested on: remnant kidney rats (5/6 nephrectomy); assay: Renal histology in remnant kidney rats; assay type: in vivo, Sprague-Dawley rats; conditions: mean±SE
Experimental: Hyperuricemia in remnant kidney rats on normal sodium diet: Under light anesthesia with ether, 5/6 nephrectomy was performed by removal of the right kidney and selective ligation of 2-3 branches of left renal artery. To induce hyperuricemia rats were given OA (750 mg/kg) by gastric gavage starting the day after the renal ablation. To prevent hyperuricemia AP was administered in the drinking water (150 mg/L). The following groups were studied: 5/6 Nx (n=10); 5/6 Nx+OA (n=12) and 5/6 Nx+OA+AP (n=13). Systolic blood pressure, proteinuria and serum uric acid were measured at baseline and after 25-28 days of follow-up. Micropuncture studies were performed at 4 weeks.
Renal Histology: After the micropuncture study kidneys and remnant kidneys were washed by perfusion with PBS and then fixed with 4% paraformaldehyde. Renal biopsies were embedded in paraffin. Four μm sections of fixed tissue were stained with periodic acid Schiff (PAS) reagent. Arteriolar morphology was assessed by indirect peroxidase immunostaining for alpha-smooth muscle actin (DAIO Corp. Carpinteria, Calif., USA). In addition in remnant kidney rats glomerulosclerosis and fibrosis was assessed with Masson's trichrome stain and tubulointerstitial lymphocytes were assessed by indirect immunoperoxidase immunostaining for anti-CD-5.
Quantification of morphology: Quantifications were performed blinded. Arteriolopathy of afferent arterioles was evaluated as previously described (Sanchez-Lozada L G, Tapia E, Avila-Casado C, Soto V, Franco M, Santamaria J, Nakagawa T, Rodriguez-Iturbe B, Johnson R J, Herrera-Acosta J: Mild hyperuricemia induces glomerular hypertension in normal rats. Am. J. Physiol Renal Physiol 283:F1105-F1110, 2002). In brief, only vessels adjacent to glomeruli were selected. For each arteriole, the outline of the vessel and its internal lumen (excluding the endothelium) was generated using computer analysis to calculate the total medial area (outline-inline), in 10 arterioles per biopsy. The media/lumen ratio was calculated by the outline/inline relationship.
Glomerulosclerosis was evaluated in Masson's trichrome stained sections. The degree of sclerosis was scored as follows: in each biopsy the numbers of glomeruli with segmental, mesangial and global sclerosis as well as normal glomerular tufts were assessed. The resulting index in each animal was expressed as the percent of sclerosed glomeruli.
Tubulointerstitial fibrosis analysis was performed by a pathologist unaware of the origin of each kidney section. Evaluation was performed using slides stained with Masson's trichrome. Five noncrossed fields ([…], enlarged ×40) per biopsy were analyzed, using light microscopy (Olympus B-51. Olympus American, Melville, N.Y.) and captured with a digital video camera (CoolSnap Pro, Media Cybernetics Silver Spring, Md.). Each picture was processed on a computer and analyzed using Image-Pro and Photoshop 7 (Adobe Systems, SanJose, Calif.). Using the capabilities of color recognition by this software, a blue color was selected for positive areas. After selection, these areas were quantified (pixel unit) using the histogram function of the software. For each field, the number of positive areas was expressed as a fraction of the tubulointerstitial area (positive areas divided by the overall field area). Finally, for each biopsy, the mean fractional amount of positive areas was obtained by averaging the values obtained from 5 fields examined. […]

[2] = tested on: normal rats on normal sodium diet; assay: Hyperuricemia in normal rats on normal sodium diet: serum uric acid, systolic blood pressure, body weight; assay type: in vivo, Sprague-Dawley rats
Experimental: Experimental Design: All animal procedures were approved by the Animal Care Committee. Male 300-350 g Sprague-Dawley rats were used in all experiments.
Hyperuricemia in normal rats on normal sodium diet: To produce hyperuricemia, rats were administered oxonic acid (OA) (Sigma, St Louis Mo., USA) 750 mg/kg body weight by gastric gavage. To prevent the rise of serum uric acid induced by OA, allopurinol (AP) (Sigma, St Louis Mo., USA) was administered in drinking water (150 mg/L). We studied the following groups: Control (n=8); OA (n=7) and OA plus allopurinol (n=9). Systolic blood pressure and serum uric acid were measured at baseline and after 30-33 days of follow-up. Micropuncture studies were performed at 5 weeks.
Evaluation: In all studies, systolic blood pressure (SBP) was measured by tail cuff sphyngomanometer using an automated system (Narco Biosystems, Houston Tex., USA). All animals were preconditioned for blood pressure measurements 1 week before each experiment. Proteinuria was determined by turbidimetry by the method of trichloroacetic acid (Henry R J, Sobel Ch, Segalove M: Turbidimetric determination of proteins with sulfosalicylic and trichloroacetic acids. Proc Soc Exp Biol Med 92:748-751, 1956). Serum uric acid was measured by colorimetric phosphotungstic acid method using a commercial kit (Wiener Lab, Argentina).
Statistical analysis. Values are expressed as mean±standard error (SE). Differences between groups were evaluated by ANOVA with appropriate correction for multiple comparisons (Bonferroni). The relation between variables was assessed by correlation analysis.

Structure (SMILES): Oc1ncnc2[nH]ncc12 [AP, allopurinol]
- AA M/L (afferent arteriole media to lumen ratio) [1]: 1.8
- effect on the hypertension induced by oxonic acid ([2]; concurrent with oxonic acid): prevented
- effect on the increase of serum uric acid induced by oxonic acid ([2]; concurrent with oxonic acid): prevented

Structure (SMILES): O=C(O)c1nc(=O)[nH]c(=O)[nH]1 [OA, oxonic acid]
- Glomerulosclerosis ([1]; Masson's trichrome): 0.33 ± 0.07%
- TI Fibrosis ([1]; Masson's trichrome): 780.2 ± 55.0 arbitrary units
- TI CD5 + (tubulointerstitial infiltration of CD5 positive cells) ([1]; immunoperoxidase): 26.1 cells/mm^2 and 26.1 ± 2.99 cells/mm^2
- AA M/L (afferent arteriole media to lumen ratio) [1]: 6.4 ± 0.37
- AA M/L (afferent arteriole media to lumen ratio) ([1]; listed as Oxonic acid): 6.4
- SUA (serum uric acid) ([2]; normal salt diet, OA 750 mg/kg gavage, AP 150 mg/L drinking water, 30-33 days, mean±SE): 5.4 ± 0.2 mg/dL
- SBP (systolic blood pressure) ([2]; normal salt diet, tail cuff, 30-33 days, mean±SE): 134 ± 3 mmHg
- increment of serum uric acid ([2]; vs control): two-fold
